{
  "source": "patent US20110178104A1",
  "about": "“Anti-Heparin Compounds” (POLYMEDIX INC., priority 2010, published 2011)",
  "key": {"fondaparinux [1]": {"tested_on": "fondaparinux", "experiment": "FXa amidolytic assay (Example 10), fondaparinux", "procedure": "(§2) Two μl of test agent are added (range between 0.01 and 23 ug/ml) and incubated for 5 minutes at 23° C. Bovine Factor Xa was added to a final concentration of 0.636 nkat/mL and incubated for a further 10 minutes at 23° C."}, "UFH [2]": {"tested_on": "UFH", "experiment": "In vivo neutralization of unfractionated heparin in the rat", "settings": "UFH 100 U/kg IV, 1 mg/kg dose IV", "method": "The male Sprague-Dawley rats used in this study were obtained from Charles River Laboratories, Raleigh. They were nine-weeks-old at the start of the study and their weights ranged from 279-334 g. Rats were pre-treated with UFH administered by IV injection in a tail vein at 100 U/kg in a dose volume of 1 mL/kg. The rats were then treated with a single IV injection of saline, protamine or the appropriate test compound at doses of 0.25, 0.5 and 1.0 mg/kg. All treatments were dosed in a volume of 1 mL/kg. Blood was collected via the orbital sinus from three rats per group at the following time points after treatment: predose, 1, 3, 10, 30 and 60. At each time point, 1 mL of blood was collected from each animal into a single tube. The blood was analyzed using an AMEX Destiny Plus Coagulation Analyzer for activated partial thromboplastintime (APTT) and anti-Factor Xa."}, "fondaparinux [3]": {"tested_on": "fondaparinux", "experiment": "In vivo neutralization of fondaparinux in the rat", "settings": "fondaparinux 0.5 mg/kg IV, test agent 2 and 5 mg/kg IV"}, "[4]": {"experiment": "Coagulation properties via ROTEM", "settings": "at fully efficacious doses"}, "tinzaparin": {"tested_on": "tinzaparin", "experiment": "FXa amidolytic assay (Example 10), tinzaparin", "settings": "read-out: Tinzap FXa EC50; tinzaparin 0.1 ug/ml; human antithrombin, bovine Factor Xa", "procedure": "as §2"}, "UFH [5]": {"tested_on": "UFH", "experiment": "FXa amidolytic assay (Example 10), UFH", "settings": "read-out: Heparin FXa uM EC50; UFH 0.03 units/mL; human antithrombin, bovine Factor Xa", "procedure": "as §2"}, "enoxaparin [6]": {"tested_on": "enoxaparin", "experiment": "Enoxaparin-extended bleeding times, rat tail transection model", "type": "in vivo", "method": "Studies have now been done to examine effects on extended bleeding times caused by enoxaparin treatment. Male Sprague Dawley rats (Charles River) were administered 2 mg/kg enoxaparin by IV injection in the tail vein, followed 3 minutes later by test agent (IV, tail vein) at 2 and 5 mg/kg doses. Tails were then rapidly transected and bleeding time onto an absorbant pad was determined. Enoxaparin alone (no antagonist) extends bleeding time from 11 to 24 seconds."}, "[7]": {"experiment": "Cytotoxicity colorimetric assay, NIH/3T3", "type": "cell-based, mouse", "settings": "mouse, NIH/3T3 cells, one hour in serum-free media", "outline": "(§1)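 HepG2 cells (3×10^4/well, MEM + 10% FBS) and NIH/3T3 cells (2×10^4/well, DMEM + 10% BCS) were exposed to compound for 1 h in serum-free medium. Viability read by tetrazolium-to-formazan bioreduction after return to serum medium; EC50 from a four-parameter logistic fit.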"}, "NIH/3T3 cells": {"tested_on": "NIH/3T3 cells", "experiment": "Cytotoxicity colorimetric assay, NIH/3T3", "type": "cell-based, mouse", "settings": "one hour in serum-free media", "outline": "as §1"}, "blood pressure": {"tested_on": "blood pressure", "experiment": "Hemodynamic responses in the anesthetized rat", "type": "in vivo"}, "[8]": {"experiment": "Cytotoxicity colorimetric assay, HepG2", "type": "cell-based, human", "settings": "human, HepG2 cells, one hour in serum-free media", "outline": "as §1"}, "HepG2 cells": {"tested_on": "HepG2 cells", "experiment": "Cytotoxicity colorimetric assay, HepG2", "type": "cell-based, human", "settings": "one hour in serum-free media", "outline": "as §1"}, "Unfractionated heparin": {"tested_on": "Unfractionated heparin", "experiment": "aPTT clotting assay, UFH 0.4 U/mL in plasma (Example 10)", "type": "biochemical", "settings": "unfractionated heparin 0.4 U/mL in plasma; aPTT clotting", "method": "aPTT clotting Assay: Unfractionated heparin was mixed with plasma at a final concentration of 0.4 U/mL (or concentration which increases aPTT time to between 120 and 300 seconds). […] The ACL Elite Hemostasis analyzer (Beckman Coulter™) was used to add aPTT reagent (HemosIL SynthASil) to supplemented plasma. Clotting was initiated by addition of CaCl2 and time to clot was recorded."}, "[9]": {"tested_on": "isolated human erythrocytes", "experiment": "in vitro", "type": "cell-based", "outline": "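Test agent was serially diluted two-fold over 0.48–1000 µg/ml and incubated for 1 h at 37 °C with shaking, using erythrocytes from pooled human blood diluted in Tris-buffered saline pH 7.4 (0.22% stock). Hemolysis was measured as supernatant absorbance at 405 nm. A four-parameter logistic equation gave EC50, and melittin served as the positive control.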"}, "enoxaparin [10]": {"tested_on": "enoxaparin", "experiment": "In vivo neutralization of enoxaparin in the rat", "settings": "compared with protamine"}},
  "note": "Values joined by “and” are separate entries in the source; they are usually repeats but may differ in a detail not shown here. Identical values can stand only once.",
  "data": [
    {"smiles": "COc1ccc(NC(=O)[C@@H](CCCNC(=N)N)NC(=O)c2cc(NC(=O)[C@@H](CCCNC(=N)N)NC(=O)c3cc(NC(=O)[C@@H](CCCNC(=N)N)NC(=O)c4cc(NC(=O)[C@H](N)CCCNC(=N)N)ccc4OCC(=O)O)ccc3OC)ccc2OC)cc1C(N)=O", "note": "[Compound 283]", "values": [
      {"measurement": "Potent LMWH-antagonists with superior anti-fondaparinux activity (summary)", "setting": "fondaparinux [1]", "value": "superior anti-fondaparinux activity"},
      {"measurement": "EC50", "setting": "fondaparinux [1]; read-out: Fondap FXa EC50, fondaparinux 0.02 μg/mL, human antithrombin, bovine Factor Xa", "value": "575 nM and 530 nM and 452 nM"},
      {"measurement": "neutralization of UFH activity in aPTT assays", "setting": "UFH [2]", "value": "complete neutralization"},
      {"measurement": "reduction of Factor Xa (anti-factor Xa) levels after fondaparinux", "setting": "fondaparinux [3]", "value": "lack of effectiveness"},
      {"measurement": "coagulation properties via ROTEM", "setting": "[4]", "value": "normal coagulation properties at fully efficacious doses"},
      {"measurement": "EC50", "setting": "tinzaparin", "value": "124 nM and 96 nM"},
      {"measurement": "EC50", "setting": "UFH [5]", "value": 0.101, "unit": "µM"},
      {"measurement": "in vivo efficacy versus LMWH by bleeding time (summary)", "setting": "enoxaparin [6]; compared with protamine", "value": "superior to protamine"},
      {"measurement": "neutralization of prolonged bleeding times", "setting": "enoxaparin [6]; rat, enoxaparin 2 mg/kg IV, test agent 2 mg/kg IV", "value": "completely neutralized"},
      {"measurement": "EC50 at 1 h", "setting": "[7]", "value": 1000, "unit": "µg/mL"},
      {"measurement": "Cytotoxicity 3T3 EC50", "setting": "NIH/3T3 cells", "value": ">1000", "unit": "µg/mL"},
      {"measurement": "hemodynamic response profile", "setting": "blood pressure; anesthetized rat, 8 or 16 mg/kg 10 minute IV infusion after heparin 50 U/kg", "value": "superior to protamine"},
      {"measurement": "hemodynamic liabilities (summary)", "setting": "blood pressure; rat, in vivo", "value": "reduced hemodynamic liabilities"},
      {"measurement": "EC50 at 1 h", "setting": "[8]", "value": 1000, "unit": "µg/mL"},
      {"measurement": "Cytotoxicity HepG2 EC50", "setting": "HepG2 cells", "value": ">1000", "unit": "µg/mL"},
      {"measurement": "EC50", "setting": "Unfractionated heparin", "value": "1390 nM and 1840 nM"},
      {"measurement": "hemolysis and cytotoxicity (summary)", "setting": "[9]", "value": "non-hemolytic and low cytotoxicity"},
      {"measurement": "EC50", "setting": "[9]; Homo sapiens, Erythrocyte, 1 h, human RBC, 1 hour at 37° C., read-out: Hemolysis EC50", "value": "> 1000", "unit": "µg/mL"},
      {"measurement": "in vivo efficacy versus LMWH by anti-factor Xa activity (summary)", "setting": "enoxaparin [10]", "value": "superior to protamine"}
    ]}
  ]
}
